Measurements: patent US12391677B2, “Thyroid hormone receptor agonists” (INVENTISBIO CO., LTD., priority 2018, dated 2025)

Legend:
[1] = biological target: ligand binding domain of thyroid hormone receptor beta (Homo sapiens (Human), UniProt P10828); test: Thyroid hormone receptor TR-FRET binding assay (TRβ LBD); details: TRβ LBD 2 nM
Procedure: (§1) TR-FRET binding assay was used to test representative compounds herein.
(§2) The ligand binding domain of thyroid hormone receptor alpha and the ligand binding domain of thyroid hormone receptor beta with GST tag were purchased from Invitrogen. Biotin-SRC2-2 coactivator peptide was purchased from Sangon Biotech, Europium anti-GST and Streptavidin-D2 was from Cisbio.
(§3) Five microliters of 4× compound serial dilution was added in the 384-well plate, white, low volume, round-bottom assay plate. […] Centrifuge the assay plates at 1000 g for 1 min and incubate 1 hr at RT, protected from light. […] Calculate EC50 by fitting % Activity values and log of compound concentrations to nonlinear regression (dose response—variable slope) with Graphpad 5.0.

[2] = biological target: ligand binding domain of thyroid hormone receptor alpha (Homo sapiens (Human), UniProt P10827); test: Thyroid hormone receptor TR-FRET binding assay (TRα LBD); details: TRα LBD 4 nM
Procedure: as §1, §2, §3

[3] = biological target: TRβ-GAL4 binding domain chimeric receptors (Homo sapiens (Human), UniProt P10828); test: Thyroid hormone receptor cell assay (GAL4 luciferase reporter in HEK293-LUC cells); format: cell-based
From the text: TRα-LBD or TRβ-LBD, coding sequence was inserted into pBIND expression vector (Promega, E1581) to express TRβ-GAL4 binding domain chimeric receptors. This expression vector was transfected into HEK293-LUC host cells with reporter vector (pGL4.35 which carry a stably integrated GAL4 promoter driven luciferase reporter gene). Upon agonist binding to the corresponding TRa-GAL4 or TRb-GAL4 chimeric receptor, the chimeric receptor binds to the GAL4 binding sites and stimulates the reporter gene.
Seed 2.5×10^6 HEK293-LUC cells into a 60 mm dish and incubated for 16 h at 37° C. under 5% CO2 atmosphere. Mix 12 microliters of Lipo LTX reagent in 250 microliters of Opti-MEM Medium by inversion. Mix 6 ug of DNA in 250 uL of Opti-MEM medium, then add 6 uL of Lipo PLUS Reagent. Add diluted DNA to each tube of diluted Lipo LTX Reagent (1:1 ratio), and mix by Pipettor and incubate at room temperature for 10 min. The reagent mixture was added to a 60 mm dish, incubated with cells for 4-7 h at 37 degrees under 5% CO2 atmosphere.
75 nL compound was added into 384 well assay plate using ECHO550 and then add HEK293-LUC cells (transfected, 17,000 cells/well) into the plate using phenol red-free DMEM containing 5% charcoal/dextran-treated FBS and incubated for 16-20 h at […] under 5% CO2 atmosphere. Add 25 uL of Steady-Glo Luciferase Assay Reagent into each well. Shake for 5 min and then record the luminescence value on Envision 2104 plate reader.

Chain of ligand binding domain of thyroid hormone receptor alpha (P10827 other isoform, or with tags, fused parts or gaps del 1-162, other chains not shown): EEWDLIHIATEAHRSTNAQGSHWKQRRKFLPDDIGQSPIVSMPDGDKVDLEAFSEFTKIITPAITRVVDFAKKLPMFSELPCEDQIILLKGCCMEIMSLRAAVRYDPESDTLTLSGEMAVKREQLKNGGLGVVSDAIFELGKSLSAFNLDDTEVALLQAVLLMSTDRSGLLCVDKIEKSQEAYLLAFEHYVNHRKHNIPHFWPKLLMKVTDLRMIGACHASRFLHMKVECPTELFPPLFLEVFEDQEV
Chain of TRβ-GAL4 binding domain chimeric receptors (P10828 217-461, stated change not applied): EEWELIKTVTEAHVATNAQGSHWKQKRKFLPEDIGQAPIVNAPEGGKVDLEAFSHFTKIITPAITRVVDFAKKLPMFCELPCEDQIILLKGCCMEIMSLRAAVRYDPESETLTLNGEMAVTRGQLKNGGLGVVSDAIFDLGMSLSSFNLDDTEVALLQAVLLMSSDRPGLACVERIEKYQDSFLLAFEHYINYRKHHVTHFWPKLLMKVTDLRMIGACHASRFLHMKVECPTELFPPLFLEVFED
Chain of ligand binding domain of thyroid hormone receptor beta (P10828 217-461): as the sequence (P10828 217-461, stated change not applied) above

Row | Compound | EC50 [1] | EC50 [2] | EC50 [3]
1 | CC(C)c1c[nH]c2ccc(Oc3c(Cl)cc(-n4nc(C#N)c(=O)[nH]c4=O)cc3Cl)cc12 [Compound 56] | 90 nM | 1030 nM | 1050 nM
2 | CC(C)c1cc(Oc2c(Cl)cc(-n3nc(C#N)c(=O)[nH]c3=O)cc2C(F)(F)F)n[nH]c1=O [Compound 47] | 160 nM | 1490 nM | 4130 nM
3 | Cc1nn(-c2cc(Cl)c(Oc3cc(C(C)C4CCCCC4)c(=O)[nH]n3)c(Cl)c2)c(=O)[nH]c1=O (single isomer, unassigned) [Compound 75] | 160 nM | 1130 nM | 270 nM
4 | CCC(CC)c1cc(Oc2c(Cl)cc(-n3nc(C)c(=O)[nH]c3=O)cc2Cl)n[nH]c1=O [Compound 40] | 410 nM | 38800 nM | 610 nM
5 | CC(C)c1nn(-c2c(Cl)cc(-n3nc(C#N)c(=O)[nH]c3=O)cc2Cl)c2ccc(O)cc12 [Compound 91] | 430 nM |  | 4350 nM
6 | Cc1nn(-c2cc(Br)c(Oc3cc(C(C)C)c(=O)[nH]n3)c(Br)c2)c(=O)[nH]c1=O [Compound 46] | 30 nM | 310 nM | 90 nM
7 | CC(C)c1n[nH]c2ccc(Oc3c(Cl)cc(-n4nc(C#N)c(=O)[nH]c4=O)cc3Cl)cc12 [Compound 90] | 180 nM |  | 2760 nM
8 | Cc1nn(-c2cc(Br)c(Oc3cc(C4CCCC4)c(=O)[nH]n3)c(Br)c2)c(=O)[nH]c1=O [Compound 22] | 90 nM | 1400 nM | 200 nM
9 | CC(C)c1c[nH]c2ccc(Oc3c(Cl)cc(-n4nc(C#N)c(=O)[nH]c4=O)cc3C(F)(F)F)cc12 [Compound 83] | 20 nM | 140 nM | 230 nM
10 | CCc1nn(-c2cc(Cl)c(Oc3cc(C(C)C)c(=O)[nH]n3)c(Cl)c2)c(=O)[nH]c1=O [Compound 37] | 1550 nM | 9820 nM | 1220 nM
11 | COc1ccccc1Cc1cc(Oc2c(Cl)cc(-n3nc(C)c(=O)[nH]c3=O)cc2Cl)n[nH]c1=O [Compound 69] | 2620 nM | 90000 nM | 
12 | Cc1nn(-c2cc(Br)c(Oc3cc(C4CCC4)c(=O)[nH]n3)c(Br)c2)c(=O)[nH]c1=O [Compound 13] | 120 nM | 1350 nM | 
13 | Cc1nn(-c2cc(Cl)c(Oc3cc(Cc4ccc(O)cc4)c(=O)[nH]n3)c(Cl)c2)c(=O)[nH]c1=O [Compound 53] | 10 nM | 1370 nM | 
14 | N#Cc1nn(-c2cc(Cl)c(Oc3cc(Cc4ccccc4)c(=O)[nH]n3)c(C(F)(F)F)c2)c(=O)[nH]c1=O [Compound 64] | 240 nM | 90000 nM | 
15 | CC(C)c1cc(Oc2c(Cl)cc(-n3nc(C(C)C)c(=O)[nH]c3=O)cc2Cl)n[nH]c1=O [Compound 38] | > 90000 nM | > 90000 nM | 
16 | Cc1nn(-c2cc(Br)c(Oc3cc(C(=O)c4ccccc4)c(=O)[nH]n3)c(Br)c2)c(=O)[nH]c1=O [Compound 78] | 810 nM | 26900 nM | 
17 | Cc1nn(-c2cc(Cl)c(Oc3cc(Cc4ccc(Cl)cc4)c(=O)[nH]n3)c(Cl)c2)c(=O)[nH]c1=O [Compound 49] | 230 nM | 3200 nM | 
18 | Cc1nn(-c2cc(Cl)c(Oc3cc([C@H](C)c4ccccc4)c(=O)[nH]n3)c(Cl)c2)c(=O)[nH]c1=O (single isomer, unassigned) [Compound 72] | 3470 nM | 90000 nM | 
19 | Cc1nn(-c2cc(Cl)c(Oc3cc([C@@H](C)c4ccccc4)c(=O)[nH]n3)c(Cl)c2)c(=O)[nH]c1=O (single isomer, unassigned) [Compound 71] | 300 nM | 14600 nM | 460 nM

Second part, the compound after the results:

Row | EC50 [1] | EC50 [2] | EC50 [3] | Compound
20 | 180 nM | 1430 nM | 5290 nM | N#Cc1nn(-c2cc(Cl)c(Oc3cc(C4CCC4)c(=O)[nH]n3)c(C(F)(F)F)c2)c(=O)[nH]c1=O [Compound 62]
21 | 290 nM |  | 13600 nM | CC(c1cc(Oc2c(Cl)cc(-n3nc(C#N)c(=O)[nH]c3=O)cc2Cl)n[nH]c1=O)C1CCCCC1 (single isomer, unassigned) [Compound 92]
22 | 370 nM | 4060 nM | 650 nM | Cc1nn(-c2cc(Cl)c(Oc3cc(C4CCCC4)c(=O)[nH]n3)c(Cl)c2)c(=O)[nH]c1=O [Compound 14]
23 | 80 nM | 1270 nM | 11500 nM | N#Cc1nn(-c2cc(Cl)c(Oc3cc(Cc4ccc(O)cc4)c(=O)[nH]n3)c(Cl)c2)c(=O)[nH]c1=O [Compound 33]
24 |  |  | 18500 nM | CC(c1cc(Oc2c(Cl)cc(-n3nc(C#N)c(=O)[nH]c3=O)cc2C(F)(F)F)n[nH]c1=O)C1CCCCC1 (single isomer, unassigned) [Compound 99]
25 | 370 nM | 5820 nM | 7380 nM | N#Cc1nn(-c2cc(Cl)c(Oc3cc(C4CC4)c(=O)[nH]n3)c(Br)c2)c(=O)[nH]c1=O [Compound 7]
26 | 170 nM | 90000 nM | 8430 nM | N#Cc1nn(-c2cc(Cl)c(Oc3cc(C4CCCC4)c(=O)[nH]n3)c(C(F)(F)F)c2)c(=O)[nH]c1=O [Compound 63]
27 | 60 nM | 560 nM | 180 nM | Cc1nn(-c2cc(Br)c(Oc3cc(C4CC4)c(=O)[nH]n3)c(Br)c2)c(=O)[nH]c1=O [Compound 23]
28 | 100 nM | 1180 nM | 11200 nM | N#Cc1nn(-c2cc(Cl)c(Oc3cc(Cc4ccc5[nH]ncc5c4)c(=O)[nH]n3)c(Cl)c2)c(=O)[nH]c1=O [Compound 73]
29 | 4330 nM | 60200 nM | 4610 nM | Cc1nn(-c2cc(Cl)c(Oc3cc(C4CCCCC4)c(=O)[nH]n3)c(Cl)c2)c(=O)[nH]c1=O [Compound 15]
30 |  |  | 5500 nM | CC(c1cc(Oc2c(Cl)cc(-n3nc(C#N)c(=O)[nH]c3=O)cc2C(F)(F)F)n[nH]c1=O)C1CCCCC1 (single isomer, unassigned) [Compound 98]
31 | > 10000 nM | > 10000 nM |  | N#Cc1nn(-c2cc(Cl)c(Oc3cc(-c4ccccc4)c(=O)[nH]n3)c(Cl)c2)c(=O)[nH]c1=O [Compound 24]
32 | > 90000 nM | > 90000 nM |  | N#Cc1nn(-c2cc(Cl)c(Oc3cc(CC4CCC(O)C4)c(=O)[nH]n3)c(Cl)c2)c(=O)[nH]c1=O (stereo not shown) [Compound 51]
33 | > 10000 nM | > 10000 nM |  | N#Cc1nn(-c2cc(Cl)c(Oc3cc(CCc4ccccc4)c(=O)[nH]n3)c(Cl)c2)c(=O)[nH]c1=O [Compound 26]
34 | 190 nM | 1170 nM |  | Cc1nn(-c2cc(Cl)c(Oc3cc(CC4CCCC4)c(=O)[nH]n3)c(Cl)c2)c(=O)[nH]c1=O [Compound 59]
35 | 810 nM | 36700 nM | 12200 nM | N#Cc1nn(-c2cc(Cl)c(Oc3cc(C4CCCCC4)c(=O)[nH]n3)c(Cl)c2)c(=O)[nH]c1=O [Compound 4]
36 | 170 nM | > 90000 nM | 4980 nM | N#Cc1nn(-c2cc(Br)c(Oc3cc(C4CCCC4)c(=O)[nH]n3)c(Br)c2)c(=O)[nH]c1=O [Compound 20]
37 | 1630 nM | 90000 nM |  | N#Cc1nn(-c2cc(Cl)c(Oc3cc(Cc4ccccc4O)c(=O)[nH]n3)c(Cl)c2)c(=O)[nH]c1=O [Compound 57]
38 | 760 nM | 36700 nM | 9880 nM | N#Cc1nn(-c2cc(Cl)c(Oc3cc(C4CCCC4)c(=O)[nH]n3)c(Cl)c2)c(=O)[nH]c1=O [Compound 2]
39 | 720 nM | > 90000 nM | 12200 nM | N#Cc1nn(-c2cc(Cl)c(Oc3cc(CC4CCCCC4)c(=O)[nH]n3)c(Cl)c2)c(=O)[nH]c1=O [Compound 17]
40 | 540 nM | 5760 nM | 7100 nM | N#Cc1nn(-c2cc(Cl)c(Oc3cc(C4CC4)c(=O)[nH]n3)c(Cl)c2)c(=O)[nH]c1=O [Compound 1]
